What all share (type): cell-based, human
For assay [1], the system named is T cells. Briefly: T cell expansion in G-Rex static culture, TNC counts at day 10 harvest (ViCELL). From the text:
(§1) All cells were expanded and transduced, using a static expansion system, (scalable G-Rex®). Cryopreserved leukapheresis starting materials from healthy donors or cancer patients were thawed, washed, activated with CD3/CD28 magnetic Dynabeads, and CD3+ positive fraction was magnetically separated. The starting leukapheresis material was similar across the healthy donors. CD3+ cells ranged from 44-64%, all with an increased purity of 79-87% following positive isolation using anti CD3/CD28 Dynabeads. CD3+ phenotyping identified a range of stem cell memory (SCM) markers (CCR7+/CD45RA+) ranging from 11.6-57% in the CD8+ compartment between individuals. Enriched CD3+ T cells were seeded based on total nucleated cell (TNC) counts at 1.5×10^6 TNC/cm^2 density in the G-Rex® static cell expansion system device, in 10% of final culture volume using TexMACS+5% human AB serum (HABS) supplemented with 100 IU/ml IL-2. Transduction with vector expressing a heterologous TCR (recognising MAGE-A4) was performed 18-26 hours post addition of CD3/CD28 Dynabeads to the cells, using lentivirus (LV) vector at a MOI of 0.45. Media was then added to top up to the final culture volume, this was performed 17-24 hours post transduction with TexMACS+5% HABS+500 IU/ml IL-2. Cells were then incubated at 37° C., 5% CO2 for a further 8 days. MK-2206 was added to the media at defined intervals; in day 0 seeding media and supplemented in media used for day 2 media addition, or solely supplemented in media for day 2 media addition. The concentration of the compound varied for each experiment, 10 uM, 7.5 uM, 5 uM, 2.5 uM, 2 uM, 1.5 uM, 1 uM, 0.5 uM, 0.25 uM, 0.1 uM, 0.05 uM as dictated in the following examples. T cells were harvested 10 days post seeding. After bead removal, T-cells were counted by automated cell analysis (with ViCELL). Harvested cells were then frozen for later phenotypic and functional analysis as described.
Healthy donor material (leukapheresis material comprising white blood cells separated from a donor sample of blood) was processed for culture in static expansion (G-Rex device) following the aforementioned process for a 10 day duration. The cells were cultured with MK-2206 (1.25, 2.5, 5.0, 10 uM) added to cultures on day 0+day 2 or day 2 alone (with the day 2 media addition). On harvest, Total Nucleated Cell (TNC) counts were performed using an automated cell counter (ViCELL) to provide expansion data, and flow cytometry performed to determine phenotype. The harvested cultures were frozen and later thawed for functional assessment, an antigen stimulated cytokine release assay (1.3 described above).
The concentration of MK-2206 was tested in further titratration from 0.05 to 10 uM to fully determine optimal dosing and day 0(+2) and day 2 alone are both assessed to determine the optimal time of addition. Again, expansion, phenotype and cytokine production data has been assessed. An additional four donors were tested at the varying concentrations, to provide a full titration range in this study, 10 uM to 0.05 uM. All donors were tested in 10 M G-Rex following the described process and were harvested on Day 10. Expansion data considered the timepoint of addition of MK-2206; Day 0+2 and Day 2 alone.

In assay [2] the test system is T cells. Briefly: Memory phenotype flow cytometry (CCR7/CD45RA) of transduced CD8+ T cells at day 10 harvest.
Excerpt: as §1, with “[…]).” for “ViCELL).”, “described. Flow cytometry was performed on healthy donor material on day 10 harvest from the described process to determine Memory Phenotype markers of cultured cells using CCR7 and CD45RA staining” for “described.”
On the technique in general: Flow cytometry measures light scatter and fluorescence of single cells or particles in a stream.

Assay [3] has as its system T-cells stimulated with MAGEA4-positive cell line A375. Briefly: Antigen-stimulated IFNγ release by ELISA, expanded T-cells co-cultured with A375 for 48 hours. As for the experimental part:
Function of expanded T-cells was evaluated based on the levels of cytokine release by expanded T-cells following antigen-stimulation with the MAGEA4-expressing cell line, A375. A375 MAGEA4 positive target cells were counted using automated cell counter and seeded in a 96 well U-bottom plate at 30,000 viable nucleated cells (VNC) per well, in 100 uL volume per well, one day prior to T-cell stimulation and incubated overnight at 37° C., 5% CO2. Wells that were used as “T cells alone” control, received 100 uL R10 media (RPMI medium with 10% FBS and 1% Penicillin/Streptomycin) only. Following overnight incubation of target cells, harvested and frozen T-cells were thawed at 37° C. in the water bath and washed with R10 media. Cells were rested in R10 media at a density of 2×10^6 VNC/mL for 2 hours at 37° C., 5% CO2. After 2-hour rest, T-cells were counted using automated cell counter, and cultures were normalised to 35% transduction efficiency for all donors combining calculated amount of transduced and non-transduced VNC for each condition. […] Colorimetric read-out was analysed (BMG LABTECH FLUOstar Omega plate reader) at OD 450. […] For the cytokine release assays, the target and effector cells were co-cultured for 48 hours then the supernatants were collected and analysed for IFN gamma levels by ELISA. […]
In general terms: An ELISA detects its analyte on a solid surface through an enzyme-linked reagent.

The mark [4] stands for this setting: Day 0+2 addition, all concentrations 0.05-10 uM, across donors, FIG. 3A.

Turning to `NC1(c2ccc(-c3nc4ccn5c(=O)[nH]nc5c4cc3-c3ccccc3)cc2)CCC1` [MK-2206], the “expansion (TNC counts)” value in assay [1] (10 uM, all timepoints for addition, FIG. 2) is reported as “reduced expansion”. Besides, the TNC yield entry is “low yield” in assay [1] (Day 0(+2) addition, FIG. 2) and “improved TNC yield” in assay [1] (day 2 alone addition, with exception of 10 uM, FIG. 2). Besides, the “limit of expansion decrease (fold change to untreated control)” value in assay [1] (setting [4]) is recorded as 0.15 fold. Also, the “limit of expansion increase (fold change to untreated control)” value in assay [1] (setting [4]) is reported as 1.5 fold. Besides, the impact on expansion result in assay [1] (Day 2 addition, 0.05-10 uM, FIG. 3B) was “no negative impact on expansion”. Further, in assay [1] (Day 2 addition, 3 donors, FIG. 3B), the “concentration providing peak expansion” value was determined as 0.5 µM. For the same compound, the “expansion response relative to control” value in assay [1] (Day 2 addition, all conditions, FIG. 3B) was 1-2 fold. Further, the T cell expansion result in assay [1] (MK-2206 added on Day 2, after activation on day 0 and transduction on day 1) is “Improved T cell expansion”. In addition, the “expansion (TNC counts) compared to the untreated control” value in assay [1] (healthy donor material, lower concentrations of MK-2206 (1.25-10 uM tested), day 10 harvest, FIG. 2) was “increased expansion”. In addition, the “CCR7+CD45RA+ populations at harvest compared to the untreated control” value in assay [2] (added on day 0+2 and day 2 alone, CD3+/Dextramer+/CD8+ compartment, FIG. 4) was “increased”. The “EMRA population versus untreated control” value in assay [2] (all concentrations tested) was “remains similar to the untreated control”. Also, the CD62L expression entry in assay [2] (cells cultured with MK-2206) is given as “increase”. Moreover, the “CCR7−CD45RA− effector memory (EM) populations” value in assay [2] (cells cultured with MK-2206, FIG. 4) was “decrease”. Moreover, the “IFN gamma production following antigen stimulation versus untreated control” value in assay [3] (day 2 addition of MK-2206, FIG. 5) is listed as “highest increase”. In assay [3] (increasing MK-2206 concentration, >5 uM, FIG. 5), the “IFN gamma production following antigen stimulation” value is listed as “decrease”.

Source of the values: US20230133064A1, “T CELL MANUFACTURING PROCESS” (Adaptimmune Limited, priority 2020, published 2023).
